Measured values published in patent publication US8097615B2, “Neurofibrillary labels” (Wista Laboratories Ltd., priority 2001, dated 2012).
Entries after “also recorded” stand apart in the source; their conditions may differ.

How the values were obtained:
[1] = tested on: tangle fragments; assay: Competitive binding assay: displacement of primulin fluorescence from tangle fragments (ifI); design: species or system human; details: for competition with / displacement of other ligands at tangles: fluorescence end point
Protocol: IfI material was homogenised in a 0.2 ml glass homogeniser in PBS. To the suspension, test compounds were added to final concentrations ranging from 0.1% to 0.00001%. […] The suspensions were transferred to a glass slide, and examined by fluorescence microscopy across a range of fluorescence filter blocks, covering excitation and emission wavelengths between 380 nm and 570 nm. The end point sought in these observations was displacement of typical primulin fluorescence from tangle fragments.

[2] = tested on: tau-tau binding; assay: Solid-phase tau-tau binding assay, tau Preparation 1 (WO96/30766); assay type: biochemical, human
Source text: This point was further examined by studying the potency of typical aggregated tau ligands as tau-aggregation inhibitors. It has been shown previously that tau aggregation inhibitors (e.g. diaminophenothiazines) can be identified on the basis of inhibition of tau-tau binding in a solid-phase assay (WO 96/30766). […] Thus, although these compounds are potent ligands for tau within the PHF-core, they are at most weak inhibitors at the site required for inhibition of tau-tau binding.
Large-scale purification (1 liter bacterial culture) of tau fragments was carried out as described by Goedert and Jakes (1990, EMBO J., 9, 4225-4230), with minor modifications. Cells were disrupted by rapid freezing of the cell pellet in liquid nitrogen. The pellets were then suspended in buffer containing 50 mM PIPES, 1 mM dithiothreitol (DTT) (pH 6.8). The thermostable proteins in the supernatant were dialysed against PIPES/DTT, then applied to a column containing phosphocellulose equilibrated in the same buffer. […] Fractions were analysed by SDS-PAGE and both Coomassie staining and immunoblotting. […] Protein concentrations were measured by the Lowry method (Harrington C R (1990), “Lowry protein assay containing sodium dodecyl sulphate in microtitre plates for protein determinations on fractions from brain tissue”, Analytical Biochemistry 186: 285-287).

[3] = molecular target: T1, tau-tau binding (Homo sapiens, UniProt P10636); assay: Relief of DMMB inhibition of tau-tau binding by ligands (Preparation 2); assay type: biochemical; details: for BMax of tau-tau binding: Binding=(BMax×[ligand])/(Kd+[ligand])
T1 construct: a truncated tau protein corresponding to the core fragment and terminating at Ala390-dGA; dGAE which terminates at Glu-391; made in house; host or cells: E. coli BL21 (DE3), pRK172; DE52 flow-through, P11 phosphocellulose, PEG concentration, no heat step (Preparation 2)
Source text: 2. using tau proteins prepared in this manner for testing putative ligands in the tau-tau binding assay provided in WO96/30766 to identify substances which have minimal or entirely absent activity as tau-aggregation inhibitors or enhance tau-tau binding at high concentrations; 3. testing putative ligands in the presence of an exemplary potent tau-aggregation inhibitor, such as DMMB, at an inhibitory concentration; 4. putative ligands can be identified by the property that they lack capacity to block tau-tau binding through the repeat domain, but block the inhibitory activity of a potent tau-aggregation inhibitor.
(ii) contacting (a) a tau protein or a derivative thereof containing the tau core fragment bound to a solid phase so as to expose a high affinity tau capture site (e.g. a truncated tau protein corresponding to the core fragment and terminating at Ala390-dGA), with (b) a liquid phase tau protein or derivative thereof capable of binding to the solid phase tau protein or derivative (e.g. dGAE which terminates at Glu-391), and (c) said selected first agent and (d) a second agent known to be tau-tau binding inhibitor, (iii) selecting a first agent which fully or partially relieves the inhibition of binding of the liquid phase tau protein or derivative of (b) to the solid phase tau protein or derivative of (a) by the inhibitor (d).
Similar results are shown for 15 μM DMMB in the presence of increasing concentrations of Primulin (c) and Thiazin Red (d).
For each graph, Tau-Tau binding is shown in the presence of constant concentrations of DMMB co-incubated with Primulin at 0×, 1×, 5×, 10×, 100× the DMMB concentrations shown.
This implies that the Tau-aggregation enhancement effect of these ligands is proportional to the fraction of ligand-binding sites occupied, presumably within the Tau aggregates introduced into the aqueous-phase of the assay. The mean Bmax for both ligands is ˜1.6. That is, the maximum ligand effect is to produce 1.6-fold the Tau-Tau binding signal seen in the absence of any drug. The mean Kd for this effect is ˜15×. That is, for any given concentration of DMMB>4 μM, 50% of maximal enhancement of Tau-Tau binding can be seen when the ligand molar excess is 15-fold relative to the concentration of DMMB.

T1 sequence (P10636 614-708 limits assumed): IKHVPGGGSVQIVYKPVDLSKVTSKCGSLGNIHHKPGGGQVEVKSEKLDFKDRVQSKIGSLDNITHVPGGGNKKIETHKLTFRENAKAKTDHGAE

In the case of `Cc1ccc2sc(-c3ccc4sc(-c5ccc(N)cc5)nc4c3)nc2c1S(=O)(=O)[O-].[Na+]` [primulin], the activity as ligand [1] is reported as “active ligands”, the “competition with / displacement of other ligands at tangles” value [1] is reported as “displace this from tangles” and the “competition with / displacement of other ligands at tangles” value ([1]; listed as compound 1a) is reported as “displace compound 1b at tangles”. For the same compound, the “inhibition of tau-tau binding” value [2] was “weak inhibitors of tau-tau binding”, the “BMax of tau-tau binding” value ([3]; 5 μM DMMB) was 1.38 and the “BMax of tau-tau binding” value ([3]; 25 μM DMMB) was 1.67. For the same compound, the “reversal of inhibitory effect of DMMB on tau-tau binding” value ([3]; co-incubation with increasing molar excess of ligand) was “progressively attenuated and reversed; also recorded: completely reversed”.
